Activity calls are given as the source filed them.
Columns and labels:
[1] = microbe, parasite or virus in culture; assay type: functional; settings: Mycobacterium tuberculosis
[2] = THP-1 cell cytotoxicity, dose response, cytotoxicity control for non-replicating M. tuberculosis project (AID 489025); assay type: functional
[3] = Vero E6 cell cytotoxicity, dose response, cytotoxicity control for non-replicating M. tuberculosis project, secondary assay (AID 492998); assay type: functional, VeroE6; settings: Vero C1008
[4] = molecular target: Neurotensin receptor type 1 (Homo sapiens, UniProt P30989); assay type: functional;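 note: Image-based confirmatory dose-response assay measuring agonist activity at NTR1; NTR1-expressing U2OS osteosarcoma cells imaged for beta-arrestin GFP spot formation; agonist potency where compounds increase beta-arrestin recruitment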
cells [5] = assay type: functional
[6] = molecular target: Heat shock protein HSP 90-alpha (Homo sapiens, UniProt P07900); assay type: functional, organism-based
INS1 = assay: INS-1E survival protection against cytokine death – cell-based, luminescence, retest, dose response (AID 449756); assay type: functional; settings: Rattus norvegicus;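 note: cell death triggered by IL-1 beta plus TNF-alpha plus IFN-gamma mixture; protective hits raise ATP signal compared with cytokine alone wells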
Bcl-2-like protein 10 = molecular target: T1, Bcl-2-like protein 10 (Homo sapiens, UniProt Q9HD36); assay: Bcl-B/TR3 peptide binding disruption – biochemical, fluorescence polarization, FITC-TR3 peptide, selectivity assay for Bfl-1 inhibitor project, primary screen (AID 748);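 note: fluorescence polarization from a fluorescein-labelled TR3 peptide binding purified Bcl-B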
T1 sequence (Q9HD36 whole entry): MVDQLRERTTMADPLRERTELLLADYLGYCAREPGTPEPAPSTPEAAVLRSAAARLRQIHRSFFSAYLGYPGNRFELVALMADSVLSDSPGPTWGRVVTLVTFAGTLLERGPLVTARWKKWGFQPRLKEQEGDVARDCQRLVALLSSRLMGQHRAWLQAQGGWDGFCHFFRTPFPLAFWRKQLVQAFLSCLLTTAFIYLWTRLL

Troponin, cardiac muscle = Troponin, cardiac muscle (Homo sapiens, UniProt P19429+P45379+P63316); assay: Fluorescence-based biochemical high throughput dose response assay for activators of the calcium sensitivity of cardiac Regulated Thin Filaments (RTF). [Related pubchem assays (depositor defined):AID493008, AID493018, AID504382, AID504383]; assay type: protein-complex assay
[7] = molecular target: T2, Lysosomal acid glucosylceramidase (Homo sapiens, UniProt P04062); assay: Dose response cell-based high throughput screening assay to identify enhancers of beta-glucosidase activity. [Related pubchem assays: 784 ]; assay type: functional
T2 sequence (P04062 whole entry): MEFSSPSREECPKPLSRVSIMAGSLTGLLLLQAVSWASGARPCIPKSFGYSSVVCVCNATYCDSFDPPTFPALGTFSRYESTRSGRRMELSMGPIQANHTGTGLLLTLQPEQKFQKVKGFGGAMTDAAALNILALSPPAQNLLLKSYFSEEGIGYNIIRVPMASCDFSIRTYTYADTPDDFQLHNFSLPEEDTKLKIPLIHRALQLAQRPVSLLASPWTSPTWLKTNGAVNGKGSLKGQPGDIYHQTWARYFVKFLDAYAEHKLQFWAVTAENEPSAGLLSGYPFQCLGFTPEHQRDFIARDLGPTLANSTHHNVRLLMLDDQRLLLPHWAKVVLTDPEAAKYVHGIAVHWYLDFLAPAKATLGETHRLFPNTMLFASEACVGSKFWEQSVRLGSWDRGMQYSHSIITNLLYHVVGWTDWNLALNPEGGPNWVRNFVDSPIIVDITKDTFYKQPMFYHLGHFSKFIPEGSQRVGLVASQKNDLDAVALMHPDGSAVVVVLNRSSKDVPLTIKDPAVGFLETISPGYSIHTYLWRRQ

[8] = molecular target: G-protein coupled receptor 55 (Homo sapiens, UniProt Q9Y2T6); assay: selective activators of receptor GPR55 – imaging, U2OS cells, beta-arrestin-GFP redistribution, primary screen (AID 1961); assay type: functional
Cytochrome P450 3A4 = Cytochrome P450 3A4 (Homo sapiens, UniProt P08684); settings: Potency;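 note: confirmatory qHTS run detecting inhibitors and substrates of CYP3A4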
Bcl-2-related protein A1 = molecular target: T3, Bcl-2-related protein A1 (Mus musculus, UniProt Q07440); assay type: functional;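 note: confirmatory dose–response counterscreen on Bfl-1, used to check hits from a UBC13 polyubiquitin inhibitor campaign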
T3 sequence (Q07440 whole entry): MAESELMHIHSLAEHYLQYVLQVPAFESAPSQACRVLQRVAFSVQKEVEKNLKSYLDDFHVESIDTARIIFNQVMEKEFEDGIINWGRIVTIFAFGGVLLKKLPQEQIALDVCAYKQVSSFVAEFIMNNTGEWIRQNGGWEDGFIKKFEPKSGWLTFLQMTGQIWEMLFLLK

[9] = molecular target: T4, Ubiquitin-conjugating enzyme E2 N (Homo sapiens, UniProt P61088); assay type: functional
T4 sequence (P61088 whole entry): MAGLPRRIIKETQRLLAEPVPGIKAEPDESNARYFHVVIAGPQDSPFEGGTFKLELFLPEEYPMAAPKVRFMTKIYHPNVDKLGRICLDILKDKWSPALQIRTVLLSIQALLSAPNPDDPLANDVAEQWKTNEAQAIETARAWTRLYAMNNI

[10] = molecular target: T4, Ubiquitin-conjugating enzyme E2 N; assay type: functional; remark: listed apart in the source
[11] = viability of uninfected HEp-2 cells – cell-based, HTS, cytotoxicity control for RSV inhibitor project, dose response (AID 2410); assay type: functional; settings: human respiratory syncytial virus
[12] = molecular target: Glyceraldehyde-3-phosphate dehydrogenase (Homo sapiens, UniProt P04406)
[13] = Trypanosoma cruzi growth suppression in host cells – NIH3T3 host cells, beta-gal luminescence, confirmation (AID 2044); assay type: functional, cell-based;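 note: intracellular parasites grown in NIH/3T3 mouse fibroblasts as host cells; luminescent beta-galactosidase reporter signal from transgenic T. cruzi replicating inside host cells; inhibitors lower the luminescence signal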
[14] = NIH3T3 cell viability loss – ATP luminescence, mouse fibroblasts, counter-screen, dose response (AID 2010); assay type: functional, cell-based;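 note: cells exposed to compound for about 90 hours before reading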
[15] = molecular target: Induced myeloid leukemia cell differentiation protein Mcl-1 (Homo sapiens, UniProt Q07820); assay type: functional
Cytochrome P450 1A2 = molecular target: T5, Cytochrome P450 1A2 (Homo sapiens, UniProt P05177);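 note: PubChem cytochrome P450 panel assay, CYP1A2 panel member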
T5 sequence (P05177 whole entry): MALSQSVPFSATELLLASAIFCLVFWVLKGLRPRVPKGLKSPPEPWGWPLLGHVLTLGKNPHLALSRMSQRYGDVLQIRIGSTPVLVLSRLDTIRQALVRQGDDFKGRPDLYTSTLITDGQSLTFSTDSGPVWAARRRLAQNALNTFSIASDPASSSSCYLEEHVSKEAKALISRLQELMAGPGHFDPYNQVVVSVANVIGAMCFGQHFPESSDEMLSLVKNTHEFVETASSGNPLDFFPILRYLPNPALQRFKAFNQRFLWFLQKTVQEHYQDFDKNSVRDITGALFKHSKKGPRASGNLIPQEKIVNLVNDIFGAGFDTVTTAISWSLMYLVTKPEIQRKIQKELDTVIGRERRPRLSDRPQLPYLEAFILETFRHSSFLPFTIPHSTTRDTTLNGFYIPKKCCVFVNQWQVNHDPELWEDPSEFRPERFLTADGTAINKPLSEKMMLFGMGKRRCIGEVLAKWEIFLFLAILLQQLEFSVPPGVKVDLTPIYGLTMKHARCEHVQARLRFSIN

[16] = molecular target: DNA dC->dU-editing enzyme APOBEC-3G (Homo sapiens, UniProt Q9HC16); assay: Dose Response confirmation of small molecule APOBEC3G DNA Deaminase Inhibitors via a fluorescence-based single-stranded DNA deaminase assay. [Related pubchem assays (depositor defined):AID493012, AID493028]; assay type: functional
[17] = Luminescence Cell-Based Dose Retest to Confirm Inhibitors of Cancer Stem Cells. [Related pubchem assays (depositor defined):AID2717, AID2721]; assay type: functional; settings: Homo sapiens
[18] = NIH-3T3 fibroblast cytotoxicity, dose response, cytotoxicity control, cell-based, fluorescence, Alamar Blue, secondary assay (AID 2327); assay type: functional;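 note: NIH-3T3 mouse fibroblasts cultured with fluconazole at 8 µg/mL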
HEK293 [19] = assay: inhibition of NOD1-driven NF-kB reporter – cell-based, luminescence, uHTS, primary screen (AID 1578); assay type: functional; settings: Homo sapiens
[20] = tested on: Streptococcus sp. 'group A'; assay: Streptococcus pyogenes SK(-)GAS viability under kanamycin – luminescence, BacTiterGlo, confirmation, counter-screen for streptokinase expression inhibitor project, dose response (AID 1900); assay type: functional, organism-based
HEK293 [21] = assay: cells; assay type: functional, cell-based; settings: Homo sapiens
cells [22] = assay type: functional, cell-based
[23] = fluconazole-exposed Candida albicans growth modulators – fluorescence, retest, confirmation (AID 2467); assay type: functional, cell-based
HEK293 [24] = assay: cells; assay type: functional, cell-based; settings: Homo sapiens; remark: listed apart in the source
[25] = molecular target: Nucleotide-binding oligomerization domain-containing protein 2 (Homo sapiens, UniProt Q9HC29); assay: inhibition of NOD2-driven NF-kB reporter – cell-based, luminescence, uHTS, HEK293 (AID 1566); assay type: functional
HEK293 [26] = assay: NOD2 signaling inhibitors in MDP-stimulated cells, cell-based, uHTS, luminescence (AID 2001); assay type: functional; settings: Homo sapiens
cells [27] = assay type: functional, cell-based; remark: listed apart in the source
Streptococcus = assay: GAS UMAA2166 growth inhibition – luminescence, BacTiterGlo, counter-screen for streptokinase expression inhibitor project, dose response (AID 1915); assay type: functional, organism-based;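 note: potency for reduction of bacterial viability or growth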

In the case of `Nc1ccccc1C#CC(=O)c1ccccc1`, the CC50 [1] is reported as 16.9 µM (active), the CC50 [2] is reported as 23.5 µM (active) and the CC50 [3] is reported as 17.4 µM (active). The EC50 [4] was 8.09 µM (active), the IC50 (cells [5]) was 4.2 µM (active) and the AC50 [6] was 5.42 µM (active). The AC50 (INS1) was 7.81 µM (active).
For `Cc1cc(C)nc(Nc2ccc(N3CCCC3)cc2)n1`, the IC50 (Bcl-2-like protein 10) was 61.9 µM (inactive).
With `C=CCOc1ccc(Br)cc1CNCC` the EC50 (Troponin, cardiac muscle) was > 71.5 µM (inactive).
In the case of `Cc1ccccc1OCC(=O)N(Cc1cccs1)C1CCS(=O)(=O)C1` (stereo unspecified), the EC50 [7] is reported as > 50 µM (not active).
With `CCOc1ccc(C2CC(c3c(O)oc4ccccc4c3=O)=NN2c2ccccc2)cc1OC` (stereo unspecified) the EC50 [8] was 8.61 µM (active).
For `C=CCn1c(S)nnc1-c1c[nH]c2ccccc12`, the EC50 [7] was > 50 µM (not active).
With `COc1ccc(N)c(OC)c1` the AC50 (Cytochrome P450 3A4) was 25.1 µM (inconclusive).
For `O=C(c1ccc(S(=O)(=O)N2CCCC2)cc1)N1CCC(CN2C(=O)c3cccc4cccc(c34)C2=O)CC1`, the IC50 (Bcl-2-related protein A1) was > 20 µM (inactive), the IC50 [9] was 6.28 µM (active) and the IC50 [10] was 8.21 µM (active).
With `CCOC(=O)c1nnc(-c2ccc(C)cc2)nc1Oc1ccc(Cl)cc1Cl` the CC50 [11] was 14.1 µM (active) and the EC50 [8] was 12.4 µM (inactive).
For `O=C(O)CSc1nc(-c2ccccc2)cs1`, the IC50 [12] was > 100 µM (not active).
With `Cc1nc(NC(=O)c2ccco2)sc1-c1csc(Nc2ccc(Cl)cc2Cl)n1` the IC50 (Bcl-2-like protein 10) was > 100 µM (inactive), the EC50 [13] was 0.537 µM (active) and the EC50 [14] was > 60 µM (not active). For the same compound, the IC50 [15] was 1.56 µM (active) and the AC50 (Cytochrome P450 1A2) was 15.8 µM (inconclusive).
In the case of `CN1C[C@@H]2C(c3ccc(Cl)nc3)C3(c4ccc(C#N)cc4)CC2(C3)[C@H]1c1ccccc1` (stereo partly specified), the AC50 (Cytochrome P450 3A4) is reported as 15.8 µM (inconclusive).
In the case of `Cc1[nH]c(=O)[nH]c(=S)c1C(=O)Nc1ccc(Cl)c(Cl)c1`, the IC50 [16] is reported as 9.67 µM (active).
With `O=C(O)c1ccccc1CSc1nnnn1-c1ccccc1` the EC50 (Troponin, cardiac muscle) was > 71.5 µM (inactive).
In the case of `CC1CCN(CCCNC(=O)c2ccc3c(=O)n(Cc4ccc(Cl)cc4)c(=S)[nH]c3c2)CC1`, the AC50 [17] is reported as 6.37 µM (active), the IC50 [9] is reported as > 20 µM (inactive) and the EC50 [4] is reported as 17.9 µM (active).
For `COc1cccc(/C=N/NC(=O)c2c(C)nc3ccc(Cl)cn23)c1O`, the EC50 [18] was > 160 µM (inactive), the EC50 (HEK293 [19]) was > 20 µM (inactive) and the EC50 [20] was 3.25 µM (active). For the same compound, the IC50 (HEK293 [21]) was > 20 µM (inactive), the EC50 (cells [22]) was 6.42 µM (active) and the EC50 [23] was 1.36 µM (active). For the same compound, the IC50 (HEK293 [24]) was > 20 µM (inactive), the EC50 [25] was > 20 µM (inactive) and the IC50 (HEK293 [26]) was > 20 µM (inactive). For the same compound, the EC50 (cells [27]) was > 350 µM (not active), the EC50 (Streptococcus) was 7.14 µM (active) and the AC50 (INS1) was 0.879 µM (active).
For `O=C(CSCc1ccc([N+](=O)[O-])cc1)N/N=C/c1ccncc1`, the IC50 (Bcl-2-related protein A1) was > 20 µM (inactive), the IC50 [9] was 17.3 µM (active) and the IC50 [10] was > 20 µM (inactive).
With `CCOC(=O)c1c(C)cc(OC)cc1O` [ETHYL EVERNINATE] the AC50 (Cytochrome P450 3A4) was 31.6 µM (inconclusive).
